According to ChEMBL document CHEMBL4507296 (2021):

Experiments:
[1] = target: Homeodomain-interacting protein kinase 2 (Homo sapiens) (UniProt Q9H2X6); conditions: Compound concentration 1000.0 nM
[2] = target: Phosphorylase b kinase gamma catalytic chain, skeletal muscle/heart isoform (Homo sapiens) (UniProt Q16816); conditions: Compound concentration 1000.0 nM
[3] = test system: eIF-2-alpha kinase GCN2 (Homo sapiens), Q9P2K8 [S808G]; conditions: Compound concentration 1000.0 nM
[4] = target: Serine/threonine-protein kinase STK11 (Homo sapiens) (UniProt Q15831); conditions: Compound concentration 1000.0 nM
[5] = target: Serine/threonine-protein kinase TAO1 (Homo sapiens) (UniProt Q7L7X3); conditions: Compound concentration 1000.0 nM
[6] = target: Myosin light chain kinase (Homo sapiens) (UniProt Q32MK0); conditions: Compound concentration 1000.0 nM
[7] = target: Tyrosine-protein kinase FRK (Homo sapiens) (UniProt P42685); conditions: Compound concentration 1000.0 nM
[8] = test system: Fibroblast growth factor receptor 3 (Homo sapiens), P22607 [G697C]; conditions: Compound concentration 1000.0 nM
[9] = test system: Epidermal growth factor receptor (Homo sapiens), P00533 [G719C]; conditions: Compound concentration 1000.0 nM
[10] = target: 5'-AMP-activated protein kinase catalytic subunit alpha-2 (Homo sapiens) (UniProt P54646); conditions: Compound concentration 1000.0 nM
[11] = test system: Receptor-type tyrosine-protein kinase FLT3 (Homo sapiens), P36888 [D835H]; conditions: Compound concentration 1000.0 nM
[12] = test system: Epidermal growth factor receptor (Homo sapiens), P00533 [UNDEFINED MUTATION]; conditions: Compound concentration 1000.0 nM
[13] = GPCRScan assay: inhibition of GABA/PBR; parameters: species or system Rattus norvegicus; radioligand conc. used [nm] 0.3 – 2.0, parental cells brain tissue
[14] = target: Ephrin type-B receptor 2 (Homo sapiens) (UniProt P29323); conditions: Compound concentration 1000.0 nM
[15] = target: Ribosomal protein S6 kinase alpha-3 (Homo sapiens) (UniProt P51812); conditions: Compound concentration 1000.0 nM
[16] = target: Muscarinic acetylcholine receptor M3 (Homo sapiens) (UniProt P20309); conditions: Compound concentration 10.0 uM
Chain of Muscarinic acetylcholine receptor M3 (Homo sapiens) (P20309 whole entry, looked up): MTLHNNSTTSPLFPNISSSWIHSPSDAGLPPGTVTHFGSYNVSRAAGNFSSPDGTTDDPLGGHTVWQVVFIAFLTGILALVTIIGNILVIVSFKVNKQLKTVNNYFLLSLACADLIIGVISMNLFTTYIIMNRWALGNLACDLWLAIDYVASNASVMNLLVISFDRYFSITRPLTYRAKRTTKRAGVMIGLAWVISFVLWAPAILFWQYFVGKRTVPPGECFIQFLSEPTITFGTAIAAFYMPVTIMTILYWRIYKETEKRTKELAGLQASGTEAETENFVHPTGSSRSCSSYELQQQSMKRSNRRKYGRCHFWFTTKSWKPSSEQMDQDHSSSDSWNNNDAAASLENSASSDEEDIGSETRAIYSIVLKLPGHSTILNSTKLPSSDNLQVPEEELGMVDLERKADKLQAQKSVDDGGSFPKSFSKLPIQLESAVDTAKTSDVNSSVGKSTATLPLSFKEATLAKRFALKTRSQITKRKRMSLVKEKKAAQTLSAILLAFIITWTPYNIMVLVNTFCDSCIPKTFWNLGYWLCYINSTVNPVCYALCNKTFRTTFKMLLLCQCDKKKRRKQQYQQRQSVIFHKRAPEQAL

[17] = target: Serine/threonine-protein kinase WNK3 (Homo sapiens) (UniProt Q9BYP7); conditions: Compound concentration 1000.0 nM
Chain of Serine/threonine-protein kinase WNK3 (Homo sapiens) (Q9BYP7 whole entry): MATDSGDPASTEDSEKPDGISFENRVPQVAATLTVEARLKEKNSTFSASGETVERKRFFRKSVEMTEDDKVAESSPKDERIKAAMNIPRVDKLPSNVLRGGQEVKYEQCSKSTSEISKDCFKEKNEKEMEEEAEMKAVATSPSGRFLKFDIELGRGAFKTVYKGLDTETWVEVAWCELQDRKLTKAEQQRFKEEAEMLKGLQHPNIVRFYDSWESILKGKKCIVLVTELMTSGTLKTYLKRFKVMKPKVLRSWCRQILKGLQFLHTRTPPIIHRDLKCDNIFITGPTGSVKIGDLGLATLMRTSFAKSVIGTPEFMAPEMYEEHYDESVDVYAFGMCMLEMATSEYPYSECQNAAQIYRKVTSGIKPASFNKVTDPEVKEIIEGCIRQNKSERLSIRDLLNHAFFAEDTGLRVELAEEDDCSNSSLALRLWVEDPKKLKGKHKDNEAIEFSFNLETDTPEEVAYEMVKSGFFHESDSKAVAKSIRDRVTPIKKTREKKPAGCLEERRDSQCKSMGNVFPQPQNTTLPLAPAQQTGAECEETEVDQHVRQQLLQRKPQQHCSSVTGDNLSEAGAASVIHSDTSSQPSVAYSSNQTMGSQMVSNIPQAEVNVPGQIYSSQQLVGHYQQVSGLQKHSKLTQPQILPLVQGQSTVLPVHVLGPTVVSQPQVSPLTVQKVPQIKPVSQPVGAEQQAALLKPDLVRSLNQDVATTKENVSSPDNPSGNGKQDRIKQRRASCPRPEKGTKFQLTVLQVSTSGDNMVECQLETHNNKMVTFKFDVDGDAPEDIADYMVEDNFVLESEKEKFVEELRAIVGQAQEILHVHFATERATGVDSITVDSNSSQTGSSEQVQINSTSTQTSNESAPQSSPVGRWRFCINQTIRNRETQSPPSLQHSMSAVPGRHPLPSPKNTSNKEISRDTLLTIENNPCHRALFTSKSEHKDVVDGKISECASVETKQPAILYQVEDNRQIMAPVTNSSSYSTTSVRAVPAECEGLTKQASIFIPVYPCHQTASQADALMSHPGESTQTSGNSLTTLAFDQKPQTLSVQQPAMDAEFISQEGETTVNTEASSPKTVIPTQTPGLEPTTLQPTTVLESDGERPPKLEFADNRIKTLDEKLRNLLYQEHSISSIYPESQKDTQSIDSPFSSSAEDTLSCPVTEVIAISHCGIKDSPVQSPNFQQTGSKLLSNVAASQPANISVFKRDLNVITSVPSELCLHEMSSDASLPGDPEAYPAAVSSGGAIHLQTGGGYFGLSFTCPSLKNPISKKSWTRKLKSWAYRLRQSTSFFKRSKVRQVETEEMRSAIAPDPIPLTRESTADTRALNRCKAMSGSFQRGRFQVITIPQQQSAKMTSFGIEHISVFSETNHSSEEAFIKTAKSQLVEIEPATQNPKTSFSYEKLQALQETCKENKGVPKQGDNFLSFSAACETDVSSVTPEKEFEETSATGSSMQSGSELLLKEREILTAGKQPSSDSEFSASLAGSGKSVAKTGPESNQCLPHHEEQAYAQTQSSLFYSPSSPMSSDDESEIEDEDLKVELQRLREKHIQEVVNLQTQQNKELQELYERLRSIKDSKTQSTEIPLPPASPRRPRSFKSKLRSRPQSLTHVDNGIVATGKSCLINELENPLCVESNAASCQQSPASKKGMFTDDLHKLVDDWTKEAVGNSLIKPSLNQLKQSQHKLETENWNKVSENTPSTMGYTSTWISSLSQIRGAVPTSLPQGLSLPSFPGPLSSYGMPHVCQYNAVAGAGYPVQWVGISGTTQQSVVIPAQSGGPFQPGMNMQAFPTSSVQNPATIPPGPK

[18] = target: Receptor-interacting serine/threonine-protein kinase 2 (Homo sapiens) (UniProt O43353); conditions: Compound concentration 1000.0 nM
[19] = target: cAMP-dependent protein kinase catalytic subunit alpha (Homo sapiens) (UniProt P17612); conditions: Compound concentration 1000.0 nM
[20] = target: Mitogen-activated protein kinase 7 (Homo sapiens) (UniProt Q13164); conditions: Compound concentration 1000.0 nM
[21] = target: Serine/threonine-protein kinase Nek1 (Homo sapiens) (UniProt Q96PY6); conditions: Compound concentration 1000.0 nM
[22] = target: Serine/threonine-protein kinase PAK 3 (Homo sapiens) (UniProt O75914); conditions: Compound concentration 1000.0 nM
Chain of Serine/threonine-protein kinase PAK 3 (Homo sapiens) (O75914 whole entry, looked up): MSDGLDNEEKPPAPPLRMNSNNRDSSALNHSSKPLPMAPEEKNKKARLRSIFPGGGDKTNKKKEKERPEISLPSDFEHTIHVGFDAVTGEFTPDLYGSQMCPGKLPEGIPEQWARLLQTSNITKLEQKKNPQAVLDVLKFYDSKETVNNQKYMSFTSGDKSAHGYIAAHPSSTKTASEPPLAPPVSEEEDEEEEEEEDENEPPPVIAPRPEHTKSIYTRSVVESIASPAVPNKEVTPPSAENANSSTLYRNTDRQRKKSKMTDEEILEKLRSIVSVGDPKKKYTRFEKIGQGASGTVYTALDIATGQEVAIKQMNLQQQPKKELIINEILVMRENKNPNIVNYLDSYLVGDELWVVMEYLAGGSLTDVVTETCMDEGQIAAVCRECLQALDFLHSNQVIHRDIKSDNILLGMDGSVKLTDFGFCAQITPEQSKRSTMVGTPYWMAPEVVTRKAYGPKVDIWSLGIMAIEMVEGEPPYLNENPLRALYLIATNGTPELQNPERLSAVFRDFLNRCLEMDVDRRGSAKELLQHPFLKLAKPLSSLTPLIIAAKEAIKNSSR

[23] = target: Cyclin-dependent kinase 4 (Homo sapiens) (UniProt P11802); conditions: Compound concentration 1000.0 nM
[24] = target: Casein kinase I isoform alpha-like (Homo sapiens) (UniProt Q8N752); conditions: Compound concentration 1000.0 nM
[25] = target: Discoidin domain-containing receptor 2 (Homo sapiens) (UniProt Q16832); conditions: Compound concentration 1000.0 nM
[26] = target: Proto-oncogene tyrosine-protein kinase Src (Homo sapiens) (UniProt P12931); conditions: Compound concentration 1000.0 nM
Chain of Proto-oncogene tyrosine-protein kinase Src (Homo sapiens) (P12931 2-536 limits assumed): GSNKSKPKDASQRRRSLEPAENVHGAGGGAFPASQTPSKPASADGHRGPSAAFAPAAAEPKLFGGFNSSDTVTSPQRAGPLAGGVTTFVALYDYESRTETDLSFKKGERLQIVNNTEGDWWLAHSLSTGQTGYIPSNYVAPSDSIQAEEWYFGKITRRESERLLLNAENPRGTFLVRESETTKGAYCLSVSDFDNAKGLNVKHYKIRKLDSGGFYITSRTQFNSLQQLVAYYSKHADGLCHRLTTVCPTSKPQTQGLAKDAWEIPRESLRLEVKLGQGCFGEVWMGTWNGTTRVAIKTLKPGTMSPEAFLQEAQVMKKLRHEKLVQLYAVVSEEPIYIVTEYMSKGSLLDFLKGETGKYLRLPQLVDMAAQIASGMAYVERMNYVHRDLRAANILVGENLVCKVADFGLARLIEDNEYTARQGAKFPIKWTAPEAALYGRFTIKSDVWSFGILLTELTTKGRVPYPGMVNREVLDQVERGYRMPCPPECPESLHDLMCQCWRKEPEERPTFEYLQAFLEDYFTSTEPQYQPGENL

[27] = test system: Tyrosine-protein kinase ABL1 (Homo sapiens), P00519 [M351T]; conditions: Compound concentration 1000.0 nM
[28] = target: Bone morphogenetic protein receptor type-1A (Homo sapiens) (UniProt P36894); conditions: Compound concentration 1000.0 nM
[29] = test system: Epidermal growth factor receptor (Homo sapiens), P00533 [L861Q]; conditions: Compound concentration 1000.0 nM
[30] = target: Calcium/calmodulin-dependent protein kinase type 1B (Homo sapiens) (UniProt Q6P2M8); conditions: Compound concentration 1000.0 nM
[31] = target: Cyclin-dependent kinase 5 (Homo sapiens) (UniProt Q00535); conditions: Compound concentration 1000.0 nM
Chain of Cyclin-dependent kinase 5 (Homo sapiens) (Q00535 whole entry, looked up): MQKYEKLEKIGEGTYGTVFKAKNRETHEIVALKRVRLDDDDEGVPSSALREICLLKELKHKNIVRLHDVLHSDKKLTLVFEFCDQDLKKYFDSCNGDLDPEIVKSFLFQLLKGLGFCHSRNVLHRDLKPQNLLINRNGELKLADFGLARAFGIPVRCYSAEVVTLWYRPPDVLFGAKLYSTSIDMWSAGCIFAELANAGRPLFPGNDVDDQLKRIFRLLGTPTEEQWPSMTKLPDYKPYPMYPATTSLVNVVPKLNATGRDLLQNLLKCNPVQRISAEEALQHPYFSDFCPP

[32] = target: 5'-AMP-activated protein kinase catalytic subunit alpha-1 (Homo sapiens) (UniProt Q13131); conditions: Compound concentration 1000.0 nM
[33] = target: MAP/microtubule affinity-regulating kinase 4 (Homo sapiens) (UniProt Q96L34); conditions: Compound concentration 1000.0 nM
[34] = target: SNF-related serine/threonine-protein kinase (Homo sapiens) (UniProt Q9NRH2); conditions: Compound concentration 1000.0 nM
[35] = target: Protein kinase C theta type (Homo sapiens) (UniProt Q04759); conditions: Compound concentration 1000.0 nM
[36] = target: Serine/threonine-protein kinase Nek2 (Homo sapiens) (UniProt P51955); conditions: Compound concentration 1000.0 nM
[37] = test system: Mast/stem cell growth factor receptor Kit (Homo sapiens), P10721 [A829P]; conditions: Compound concentration 1000.0 nM
[38] = target: Ephrin type-B receptor 6 (Homo sapiens) (UniProt O15197); conditions: Compound concentration 1000.0 nM
[39] = target: Dual specificity tyrosine-phosphorylation-regulated kinase 1A (Homo sapiens) (UniProt Q13627); conditions: Compound concentration 1000.0 nM
[40] = target: Dual specificity tyrosine-phosphorylation-regulated kinase 1B (Homo sapiens) (UniProt Q9Y463); conditions: Compound concentration 1000.0 nM
[41] = target: Casein kinase II subunit alpha' (Homo sapiens) (UniProt P19784); conditions: Compound concentration 1000.0 nM
[42] = target: Serine/threonine-protein kinase Sgk3 (Homo sapiens) (UniProt Q96BR1); conditions: Compound concentration 1000.0 nM
[43] = target: Calcium/calmodulin-dependent protein kinase kinase 2 (Homo sapiens) (UniProt Q96RR4); conditions: Compound concentration 1000.0 nM
Chain of Calcium/calmodulin-dependent protein kinase kinase 2 (Homo sapiens) (Q96RR4 2-588 limits assumed): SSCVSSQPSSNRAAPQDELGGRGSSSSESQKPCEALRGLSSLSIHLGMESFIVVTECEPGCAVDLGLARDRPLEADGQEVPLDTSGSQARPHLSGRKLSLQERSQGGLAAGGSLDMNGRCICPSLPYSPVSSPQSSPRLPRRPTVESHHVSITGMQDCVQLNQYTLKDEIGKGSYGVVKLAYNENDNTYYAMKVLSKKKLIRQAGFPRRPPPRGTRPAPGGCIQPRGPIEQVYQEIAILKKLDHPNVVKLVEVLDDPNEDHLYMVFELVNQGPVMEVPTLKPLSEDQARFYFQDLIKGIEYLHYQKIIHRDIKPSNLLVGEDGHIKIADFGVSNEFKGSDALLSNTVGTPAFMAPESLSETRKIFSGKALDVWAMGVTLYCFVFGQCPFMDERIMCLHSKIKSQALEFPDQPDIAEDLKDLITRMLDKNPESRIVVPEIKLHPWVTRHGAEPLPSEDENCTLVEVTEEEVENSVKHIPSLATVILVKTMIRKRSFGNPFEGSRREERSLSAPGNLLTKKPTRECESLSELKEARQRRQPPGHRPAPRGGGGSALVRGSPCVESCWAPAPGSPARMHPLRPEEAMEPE

[44] = target: Tyrosine-protein kinase receptor TYRO3 (Homo sapiens) (UniProt Q06418); conditions: Compound concentration 1000.0 nM
[45] = target: Mitogen-activated protein kinase 15 (Homo sapiens) (UniProt Q8TD08); conditions: Compound concentration 1000.0 nM

Chain of Phosphorylase b kinase gamma catalytic chain, skeletal muscle/heart isoform (Homo sapiens) (Q16816 whole entry, looked up, canonical isoform): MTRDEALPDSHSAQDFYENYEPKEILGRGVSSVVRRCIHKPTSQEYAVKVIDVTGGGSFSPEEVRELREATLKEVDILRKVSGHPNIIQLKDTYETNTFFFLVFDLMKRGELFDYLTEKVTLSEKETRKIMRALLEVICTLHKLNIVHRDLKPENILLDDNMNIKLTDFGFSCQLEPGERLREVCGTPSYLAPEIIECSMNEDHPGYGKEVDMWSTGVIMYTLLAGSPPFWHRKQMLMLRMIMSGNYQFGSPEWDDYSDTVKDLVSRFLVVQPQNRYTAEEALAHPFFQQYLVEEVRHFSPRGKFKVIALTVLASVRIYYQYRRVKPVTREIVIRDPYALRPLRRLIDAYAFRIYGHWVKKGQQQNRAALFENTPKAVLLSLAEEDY

Structure (SMILES): C[C@H](c1ccc(F)cc1)N(Cc1cccc(C(=O)O)c1)C(=O)c1cnc2ccccc2c1 [PF-05105679]
- residual activity [1]: 100%
- residual activity [2]: 88%
- residual activity [3]: 100%
- residual activity [4]: 100%
- residual activity [5]: 100%
- residual activity [6]: 100%
- residual activity [7]: 77%
- residual activity [8]: 100%
- residual activity [9]: 90%
- residual activity [10]: 100%
- residual activity [11]: 84%
- residual activity [12]: 100%
- Ki [13]: 1.02 µM
- pKi [13]: 5.99
- residual activity [14]: 96%
- residual activity [15]: 100%
- inhibition [16]: -7.68%
- residual activity [17]: 87%
- residual activity [18]: 82%
- residual activity [19]: 100%
- residual activity [20]: 78%
- residual activity [21]: 100%
- residual activity [22]: 96%
- residual activity [23]: 100%
- residual activity [24]: 100%
- residual activity [25]: 96%
- residual activity [26]: 100%
- residual activity [27]: 94%
- residual activity [28]: 100%
- residual activity [29]: 100%
- residual activity [30]: 100%
- residual activity [31]: 100%
- residual activity [32]: 100%
- residual activity [33]: 100%
- residual activity [34]: 96%
- residual activity [35]: 100%
- residual activity [36]: 94%
- residual activity [37]: 92%
- residual activity [38]: 88%
- residual activity [39]: 100%
- residual activity [40]: 100%
- residual activity [41]: 86%
- residual activity [42]: 100%
- residual activity [43]: 95%
- residual activity [44]: 100%
- residual activity [45]: 93%
